# Results: patent publication US20250195502A1, “APPLICATION OF TETRACYCLIC COMPOUND IN TREATMENT OF TUMORS” (SHANGHAI SHIJIANG BIOTECHNOLOGY CO., LTD, priority 2022, published 2025)
# Like-named read-outs stand apart in the source and are kept apart here.
# Assays:
# Type in all cases: cell-based
# [1] = test system: D341 Med (cerebellar medulloblastoma cell); experiment: Cell viability assay (Promega CellTiter-Glo), inhibitory effect on D341 Med; details: Homo sapiens, 72 h, 3 days of culture, read-out: inhibitory effect on brain cell line D341 Med (IC50)
# Procedure: (§1) The inhibitory effect of the compounds prepared in the Examples of the present invention on various brain tumor cell lines was detected using cell viability assay reagent.
# (§2) Cell viability was detected using the Promega CellTiter-Glo kit, cell viability was determined by directly measuring intracellular ATP content. In the experiment, the IC50 value of the compounds prepared in the Examples of the present invention on various brain tumor cell lines was detected.
# (§3) Each tumor cell was cultured in relevant medium. After cell passage, the gradient diluted compounds prepared in the Examples of the present invention was added. After 3 days of culture, the relevant IC50 (50% inhibiting concentration) was measured. The name, source and culture conditions of each tumor cell line were as follows:
# Cell line D341 Med (ATCC, No. HTB-187) was cultured in 20% fetal bovine serum-containing EMEM medium (+P/S).
# [2] = test system: NB-1 (brain neuroblastoma cell); experiment: Cell viability assay (Promega CellTiter-Glo), inhibitory effect on NB-1; details: Homo sapiens, 72 h, 3 days of culture, read-out: inhibitory effect on brain cell line NB-1 (IC50)
# Procedure: as §1, §2, §3
# Cell line NB-1 (ATCC, No. HTB-131) was cultured in 10% fetal bovine serum-containing Leibovitz's L-15 medium (+P/S).
# [3] = test system: CFPAC-1 (human pancreatic cancer cell); experiment: Cell viability assay (Promega CellTiter-Glo), inhibitory effect on CFPAC-1; details: 72 h, 3 days of culture
# Procedure: (§4) The inhibitory effect of the compounds prepared in the Examples of the present invention on various tumor cell lines was detected using cell viability assay reagent.
# (§5) Cell viability was detected using the Promega CellTiter-Glo kit, cell viability was determined by directly measuring intracellular ATP content. In the experiment, the ICso value of the compounds prepared in the Examples of the present invention on various tumor cell lines was detected.
# as §3
# Cell line CFPAC-1 (ATCC, No. CRL-1918) was cultured in 10% fetal bovine serum-containing IMDM medium (+P/S).
# [4] = test system: ov-NNMT NCI-H82 cell (NNMT protein-overexpressing NCI-H82); experiment: Cell viability assay (Promega CellTiter-Glo), inhibitory effect on ov-NNMT NCI-H82 cell; details: Homo sapiens
# Procedure: (§6) The role of expression level of NNMT gene and DNMT1 in the sensitivity of NCI-H82 cell to the compounds prepared in the Examples of the present invention was determined
# (§7) The expression of NNMT protein in NCI-H82 cell was overexpressed by inserting the NNMT gene into NCI-H82 cell using a viral vector, and the NNMT protein-overexpressing NCI-H82 cell (ov-NNMT NCI-H82 cell) was obtained. The expression of DNMT1 in NCI-H82 cell was knocked down transfecting (the by shRNA nucleotide sequence of shRNA was […] TTTTTG (SEQ ID No: 2)) using a viral vector, and the NCI-H82 cell with low expression of DNMT1 protein (sh-DNMT1 NCI-H82 cell) was obtained. The control NCI-H82 cell (Con-NCI-H82 cell) was obtained by transfecting NCI-H82 cell with empty virus vector without carrying NNMT gene and shRNA. The expressing content of NNMT protein and DNMT1 protein in the Con-NCI-H82 cell, the expressing content of NNMT protein in the ov-NNMT NCI-H82 cell, and the expressing content of DNMT1 protein in the sh-DNMT1 NCI-H82 cell were detected using Western Blot assay (as shown in FIG. 15 and FIG. 16), it could be seen from FIG. 15 and FIG. 16 that the NNMT protein was overexpressed in the ov-NNMT NCI-H82 cell and the expression of DNMT1 protein was knocked down (i.e, low expression) in the sh-DNMT1 NCI-H82 cell compared with the expression level of NNMT protein and DNMT protein in the Con-NCI-H82 cell.
# [5] = test system: SW48 (human colon adenocarcinoma cell); experiment: Cell viability assay (Promega CellTiter-Glo), inhibitory effect on SW48; details: 72 h, 3 days of culture
# Procedure: as §4, §5, §3
# Cell line SW48 (ATCC, No. CCL-231) was cultured in 10% fetal bovine serum-containing Leibovitz's L-15 medium (+P/S).
# [6] = test system: GB-1 (human brain glioblastoma cell); experiment: Cell viability assay (Promega CellTiter-Glo), inhibitory effect on GB-1; details: 72 h, 3 days of culture
# Procedure: as §4, §5, §3
# Cell line GB-1 (JCRB, No. IFO50489) was cultured in 10% fetal bovine serum-containing DMEM medium (+P/S).
# as §1, §2
# [7] = test system: Con-NCI-H82 cell (NCI-H82 transfected with empty virus vector); experiment: Cell viability assay (Promega CellTiter-Glo), inhibitory effect on Con-NCI-H82 cell; details: Homo sapiens; NCI-H82 transfected with empty virus vector (control); CellTiter-Glo; read-out: inhibitory effect on Con-NCI-H82 (IC50)
# Procedure: as §6, §7
# [8] = test system: SF126 (human glioblastoma multiforme cell); experiment: Cell viability assay (Promega CellTiter-Glo), inhibitory effect on SF126
# Procedure: as §4, §5, §3
# Cell line SF126 (JCRB, No. IFO50286) was cultured in 10% fetal bovine serum-containing EMEM medium (+P/S).
# as §1, §2
# [9] = test system: NCI-H82 (human small cell lung cancer cell); experiment: Cell viability assay (Promega CellTiter-Glo), inhibitory effect on NCI-H82; details: 72 h, 3 days of culture
# Procedure: as §4, §5, §3
# Cell line NCI-H82 (ATCC, No. HTB-175) was cultured in 10% fetal bovine serum-containing RPMI1640 medium (+P/S).
# [10] = test system: Kelly (brain neuroblastoma cell); experiment: Cell viability assay (Promega CellTiter-Glo), inhibitory effect on Kelly; details: Homo sapiens, 72 h, 3 days of culture, read-out: inhibitory effect on brain cell line Kelly (IC50)
# Procedure: as §1, §2, §3
# Cell line Kelly (ECACC, No. 92110411) was cultured in 10% fetal bovine serum and 2 mM glutamine-containing RPMI1640 medium.
# [11] = test system: 786-O (clear cell renal cell adenocarcinoma cell); experiment: Cell viability assay (Promega CellTiter-Glo), inhibitory effect on 786-O; details: Homo sapiens, 786-0, 72 h, 3 days of culture
# Procedure: as §4, §5, §3
# Cell line 786-0 (ATCC, No. CRL-1932) was cultured in 10% fetal bovine serum-containing RPMI1640 medium (+P/S).
# [12] = test system: sh-DNMT1 NCI-H82 cell (DNMT1 knocked down NCI-H82); experiment: Cell viability assay (Promega CellTiter-Glo), inhibitory effect on sh-DNMT1 NCI-H82 cell; details: Homo sapiens, NCI-H82 with DNMT1 knocked down by shRNA
# Procedure: as §6, §7
# [13] = test system: G-401 (human renal carcinoma Wilms cell); experiment: Cell viability assay (Promega CellTiter-Glo), inhibitory effect on G-401; details: 72 h, 3 days of culture
# Procedure: as §4, §5, §3
# Cell line G-401 (ATCC, No. CRL-1441) was cultured in 10% fetal bovine serum-containing McCoy's 5a medium (+P/S).
# [14] = test system: MDA-MB-453 (breast cancer cell); experiment: Cell viability assay (Promega CellTiter-Glo), inhibitory effect on MDA-MB-453; details: Homo sapiens, 72 h, 3 days of culture
# Procedure: as §4, §5, §3
# Cell line MDA-MB-453 (ATCC, No. HTB-131) was cultured in 10% fetal bovine serum-containing Leibovitz's L-15 medium (+P/S).
# [15] = Table 3, read-out: inhibitory effect on GB-1 (IC50)
# [16] = Table 4, read-out: inhibitory effect on brain cell line GB-1 (IC50)
# [17] = 72 h, SF-126, 3 days of culture, Table 3, read-out: inhibitory effect on SF-126 (IC50)
# [18] = SF-126, 72 h, SF126, 3 days of culture, Table 4, read-out: inhibitory effect on brain cell line SF126 (IC50)
Compound,IC50 [1] [µM],IC50 [2] [µM],IC50 [3] [µM],IC50 [4] [µM],IC50 [5] [µM],"IC50 [6, 15] [µM]","IC50 [6, 16] [µM]",IC50 [7] [µM],"IC50 [8, 17] [µM]","IC50 [8, 18] [µM]",IC50 [9] [µM],IC50 [10] [µM],IC50 [11] [µM],IC50 [12] [µM],IC50 [13] [µM],IC50 [14] [µM]
CCCCCc1c2[n+](cc3c(OC)c(OC)ccc13)CCc1cc3c(cc1-2)OCO3 [compound AB31758],0.98,0.12,8.32,0.92,0.49,6.47,6.47,0.36,5.14,5.14,0.36,0.59,5.41,1.38,0.42,0.4
CCCCCCc1c2[n+](cc3c(OC)c(OC)ccc13)CCc1cc3c(cc1-2)OCO3 [compound AB31759],0.85,0.12,8.15,0.64,0.31,3.47,3.47,0.27,3.94,3.94,0.27,0.41,3.18,1.18,0.31,0.31
CCCCCCCc1c2[n+](cc3c(OC)c(OC)ccc13)CCc1cc3c(cc1-2)OCO3 [compound AB31760],0.7,0.09,2.71,0.35,0.21,3.67,3.67,0.15,3.89,3.89,0.15,0.23,1.6,0.71,0.15,0.25
COc1ccc2c(CCC(C)C)c3[n+](cc2c1OC)CCc1cc2c(cc1-3)OCO2 [compound AB31765],1.63,0.3,21.7,2.88,1.16,14.8,14.8,1.34,9.8,9.8,1.34,1.29,9.09,4.05,1.27,1.07
CCCCCCc1c2c(OC)c(OC)ccc2cc2[n+]1CCc1cc3c(cc1-2)OCO3 [compound AB31767],0.57,0.12,4.31,0.65,0.37,3.61,3.61,0.26,3.7,3.7,0.26,0.3,2.1,0.98,0.18,0.27
